Results from patent US6127136A, “Detection of dioxin-like compounds by detection of transformed Ah receptor/ARNT complex” (Paracelsian, Inc., priority 1996, dated 2000).

Assays:
Type in all cases: biochemical, guinea pig (hepatic cytosol)
[1] = system: transformed AhR/ARNT complex; test: size exclusion of biotin-DRE/AhR/ARNT/anti-ARNT complex followed by capture on neutravidin ELISA plates; settings: FIG. 5, OD at 405 nm
Method: Size-exclusion of biotin-DRE/AhR/ARNT/anti-ARNT complex followed by capture on neutravidin ELISA plates and detection with anti-rabbit/alkaline phosphatase conjugate.
Diethanolamine buffer was prepared by dissolving 0.4 g Magnesium chloride hexahydrate, 0.8 g sodium azide, 338 mL diethanolamine in 2.5 L deionized water, adjusting pH to 9.8 with concentrated HCl, and adjusting volume to 4 liters.
PNPP stock was prepared fresh by dissoving two 15 mg tablets of para-nitro phenyl phosphate (Sigma, St. Louis, Mo.) in 20 mL diethanolamine buffer.
The same size exclusion column operating conditions were used as described above, except the DRE used was B-ERD oligo (SEQ. ID. #3) and DRE-D oligo (SEQ. ID #1)hybridized as described in methods. […]
Samples were incubated for 2 hours at room temperature as described above to achieve transformation/binding events then put on ice. […] The plate was incubated 2 hours, washed 3 times with 300 uL per well PBS plus 0.02% Tween 20, incubated 1 hour with 200 uL per well 1:1000 anti-rabbit/alkaline phosphatase conjugate in PBS plus 0.02% Tween 20 and 0.1% bovine serum albumin, washed 3 times with 300 uL per well PBS plus Tween 20 and developed 2 hours with 200 uL per well PnPP stock, and the optical density read at 405 nm in an ELISA spectrophotometer.

[2] = target: T1, transformed Ah receptor/ARNT complex (Cavia porcellus, UniProt Q6J287); test: Ah-ELISA, cytosol volume, time and temperature optimization; set-up: from tissue; host or cells: hepatic cytosol of male Hartley guinea pigs (animals from Cornell Research Animal Resources)
Method: The reagents and ELISA plate were prepared as described in Example 8. The volume of cytosol, temperature of cytosol incubation and time of incubation were all varied independently. The test volume of cytosol was varied between 50 and 200 μl at 50 μl increments. […] The assay was with a cytosol incubation varying between 30 and 120 minutes at 30 minute increments.

[3] = target: T1, transformed Ah receptor/ARNT complex; test: Ah-ELISA dose response using an amplified detection system; set-up: from tissue; host or cells: hepatic cytosol of male Hartley guinea pigs (animals from Cornell Research Animal Resources); settings: for Average Optical Density: 490 nm, amplified, 28 minutes
Method: The reagents and ELISA plate were prepared as described in Example 9 with an amplified detection system. The TCDD concentration was varied tested at 0, 0.016, 0.031, 0.063, 0.125, 0.25, 0.5, 1.0, 2.0, and 4.0 nM.
The amplified detection system used was the alkaline phosphatase/NADP system published by Johannson et al. (J IMM Meth 87: 7-11, 1986). This system is sold as a kit under the trademark Ampak™ by DAKO.
2x enzyme stock was made by dissolving 8 mg alcohol dehydrogenase, 1.4 mg Diaphorase, 133 mg bovine serum albumin in 40 ml AMP buffer (2.3 g 85% HPLC grade phosphoric acid in a total volume of 960 ml water, pH adjusted to 7.2 with 6N NaOH, and 40 ml of ethanol was added to make 1 L). 2x INT stock was made by dissolving 50 mg INT Violet dye in 50 mL AMP buffer.
After washing the plates, 100 μl of NADP stock (0.837 mg in 10 ml of AP buffer (diethanolamine 50 mM, 1 mM MgCl2, 0.1 mM ZnCl2, 15 mM NaN3, pH 9.5)) was added and allowed to incubate at room temperature for 30 minutes. Sensitivity can be increased by increasing amount of NADP or time of incubation. The 2x enzyme stock and 2x INT stock were mixed and 200 μl of the mixture was added per well. The OD was read at 490 nm (usually read at 1 minute intervals for up to 30 minutes). The results are shown below at 28 minutes.

T1 sequence (Q6J287 1-846): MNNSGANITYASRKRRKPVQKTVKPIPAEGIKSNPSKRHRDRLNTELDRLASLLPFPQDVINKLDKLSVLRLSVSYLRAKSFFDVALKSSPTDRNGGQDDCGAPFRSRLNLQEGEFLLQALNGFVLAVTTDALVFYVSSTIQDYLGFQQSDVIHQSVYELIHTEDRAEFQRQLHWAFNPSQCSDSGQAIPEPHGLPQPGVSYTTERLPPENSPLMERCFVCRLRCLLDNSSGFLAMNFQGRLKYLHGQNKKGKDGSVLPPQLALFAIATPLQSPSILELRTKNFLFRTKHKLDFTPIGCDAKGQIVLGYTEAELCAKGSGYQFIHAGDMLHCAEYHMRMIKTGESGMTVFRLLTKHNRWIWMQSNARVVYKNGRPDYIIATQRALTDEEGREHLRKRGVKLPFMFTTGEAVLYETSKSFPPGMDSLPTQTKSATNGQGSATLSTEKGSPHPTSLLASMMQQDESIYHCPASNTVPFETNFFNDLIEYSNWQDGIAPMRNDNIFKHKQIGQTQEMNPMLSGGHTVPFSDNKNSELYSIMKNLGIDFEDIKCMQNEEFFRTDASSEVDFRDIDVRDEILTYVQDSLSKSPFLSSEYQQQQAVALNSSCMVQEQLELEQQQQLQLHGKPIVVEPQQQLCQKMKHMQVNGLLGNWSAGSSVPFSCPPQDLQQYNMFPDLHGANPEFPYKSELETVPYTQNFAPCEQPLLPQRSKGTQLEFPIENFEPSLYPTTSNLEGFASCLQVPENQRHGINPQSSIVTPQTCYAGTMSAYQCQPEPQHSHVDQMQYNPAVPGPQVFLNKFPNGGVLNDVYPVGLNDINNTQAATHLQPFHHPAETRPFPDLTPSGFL
T1 sequence (Q0WXX3 1-790 partner): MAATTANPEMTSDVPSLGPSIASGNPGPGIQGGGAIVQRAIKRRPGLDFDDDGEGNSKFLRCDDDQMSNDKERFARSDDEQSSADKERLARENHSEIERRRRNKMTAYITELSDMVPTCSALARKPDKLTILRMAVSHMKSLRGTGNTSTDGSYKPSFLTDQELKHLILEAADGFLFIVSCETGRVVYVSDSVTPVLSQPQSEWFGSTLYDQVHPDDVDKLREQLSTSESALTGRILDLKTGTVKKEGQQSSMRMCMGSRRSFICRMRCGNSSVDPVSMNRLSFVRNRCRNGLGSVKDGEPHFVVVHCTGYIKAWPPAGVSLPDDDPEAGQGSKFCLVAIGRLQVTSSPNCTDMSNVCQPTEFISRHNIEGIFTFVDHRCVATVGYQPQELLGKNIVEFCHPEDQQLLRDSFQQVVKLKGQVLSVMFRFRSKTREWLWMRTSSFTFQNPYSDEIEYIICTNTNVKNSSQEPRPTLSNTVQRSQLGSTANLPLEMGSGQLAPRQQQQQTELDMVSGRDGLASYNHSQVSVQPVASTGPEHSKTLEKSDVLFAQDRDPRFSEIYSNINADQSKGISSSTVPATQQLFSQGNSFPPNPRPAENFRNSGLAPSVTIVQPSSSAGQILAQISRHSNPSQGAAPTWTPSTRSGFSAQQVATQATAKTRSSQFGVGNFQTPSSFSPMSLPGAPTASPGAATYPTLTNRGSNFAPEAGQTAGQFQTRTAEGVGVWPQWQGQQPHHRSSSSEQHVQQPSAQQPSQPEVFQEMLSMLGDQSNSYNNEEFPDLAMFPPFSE

Clc1cc2c(cc1Cl)Oc1cc(Cl)c(Cl)cc1O2 [TCDD, 2,3,7,8-tetrachlorodibenzo-p-dioxin]
TCDD-dependent peak, fractions [1]: 18-28 fractions | ave(+)-BG ([2]; 50 uL, 120 min, 30 C): 1006 | difference ([2]; 50 uL, 120 min, 30 C): 984 | ave(+)-BG ([2]; 100 uL, 120 min, 30 C): 1463 | difference ([2]; 100 uL, 120 min, 30 C): 1430 | ave(+)-BG ([2]; 150 uL, 120 min, 30 C): 1910 | difference ([2]; 150 uL, 120 min, 30 C): 1867 | ave(+)-BG ([2]; 200 uL, 30 min, 30 C): 394 | difference ([2]; 200 uL, 30 min, 30 C): 359 | ave(+)-BG ([2]; 200 uL, 30 min, 38 C): 525 | difference ([2]; 200 uL, 30 min, 38 C): 497 | ave(+)-BG ([2]; 200 uL, 60 min, 30 C): 1324 | difference ([2]; 200 uL, 60 min, 30 C): 1288 | ave(+)-BG ([2]; 200 uL, 90 min, 30 C): 1882 | difference ([2]; 200 uL, 90 min, 30 C): 1839 | ave(+)-BG ([2]; 200 uL, 120 min, 22 C): 1924 | difference ([2]; 200 uL, 120 min, 22 C): 1863 | ave(+)-BG ([2]; 200 uL, 120 min, 30 C): 2369 | difference ([2]; 200 uL, 120 min, 30 C): 2324 | ave(+)-BG ([2]; 200 uL, 120 min, 35 C): 959 | difference ([2]; 200 uL, 120 min, 35 C): 898 | Average Optical Density ([3]; 0.016 nM TCDD): 0.203 | Average Optical Density ([3]; 0.031 nM TCDD): 0.228 | Average Optical Density ([3]; 0.063 nM TCDD): 0.293 | Average Optical Density ([3]; 0.125 nM TCDD): 0.414 | Average Optical Density ([3]; 0.25 nM TCDD): 0.675 | Average Optical Density ([3]; 0.5 nM TCDD): 1.036 | Average Optical Density ([3]; 1 nM TCDD): 1.421 | Average Optical Density ([3]; 2 nM TCDD): 1.803 | Average Optical Density ([3]; 4 nM TCDD): 1.844 | EC50 ([3]; amplified detection, FIG. 7): ~0.248 nM
